# Laboratory results from US9902761B2, “Polypeptides, nucleic acids and uses thereof” (AGENCY FOR SCIENCE, TECHNOLOGY AND RESEARCH, priority 2013, dated 2018).
# Substitutions are numbered along the chain they refer to.
# Tests used:
# [1] = tested on: ELA processing and secretion; experiment: Xenopus secretion assay of human ELA; assay type: cell-based, Xenopus laevis; details: increasing amounts of inhibitor
# Method: ZFNs were purchased from Sigma-Aldrich. […] of mRNAs encoding the ZFN pair were injected into 1-cell stage embryos. ZFN binding sites within exon 1 are as follows: 5′_[…]_3′ (SEQ ID NO: 133) and 5′_[…] 3′ (SEQ 1D NO: 134). Sequencing primers flanking the mutation sites are: forward 5′_[…]_3′ (SEQ ID NO: 135), reverse 5′_[…] 3′ (SEQ ID NO: 136). For ela overexpression, 200 pg of SP6-transcribed zebrafish ela capped mRNA (Applied Biosystems) was injected into 1-cell stage zebrafish embryos. Translation blocking MOs used for aplnra and aplnrb have been described previously (Scott et al., 2007; Zeng et al., 2007) and were purchased from Gene tools (Oregon, USA). Embryos were injected at 1-cell stage with a combination of 1 ng of aplnra MO and 0.5 ng of apinrb MO (Zeng et al., 2007). Information on probes used for q-PCR and WISH can be found in Tables E1 and E2. Zebrafish embryos at 100% epiboly were dechorionated and processed for western blotting as previously described (Link et al., 2006). For the Xenopus secretion assay, 16 ng of SP6-transcribed human ELA capped mRNA (Applied Biosystems) was injected into each cell of 4-cell stage embryos. At stage 8, embryos were dechorionated and dissociated in CMFM medium with 5 mM EDTA. […]
# hESCs [2] = experiment: survival of hESCs after single-cell dissociation (anoikis); assay type: cell-based, human; details: with or without Y-27632
# Method: (§1) hESCs were dissociated into single cells using Accutase (Stem Cell Technologies) and plated in the presence of 10 μM Y-27632 (ROCK inhibitor) for 12 hours (Watanabe et al., 2007).
# aplnrb^grinch (W90L) = target: T1, aplnrb^grinch (W90L) (Danio rerio, UniProt A0T2N3, W90L); experiment: AP-ELA binding assay, 293T cells overexpressing receptor; details: 293T overexpression
# T1 sequence (A0T2N3 1-359 W90L): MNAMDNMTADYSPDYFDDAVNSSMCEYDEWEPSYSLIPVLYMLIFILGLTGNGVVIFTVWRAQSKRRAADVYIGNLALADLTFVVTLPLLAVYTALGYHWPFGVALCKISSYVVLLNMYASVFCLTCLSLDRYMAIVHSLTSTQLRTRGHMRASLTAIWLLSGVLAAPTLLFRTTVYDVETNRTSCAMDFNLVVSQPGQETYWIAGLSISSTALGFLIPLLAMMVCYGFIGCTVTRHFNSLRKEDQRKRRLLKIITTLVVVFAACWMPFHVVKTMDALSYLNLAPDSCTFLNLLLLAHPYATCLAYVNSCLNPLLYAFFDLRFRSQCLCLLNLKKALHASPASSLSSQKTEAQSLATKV
# hESCs [3] = experiment: AP-ELA cell surface binding assay on hESCs; design: species or system human; details: undifferentiated hESCs
# zebrafish aplnra = target: T2, zebrafish aplnra (Danio rerio, UniProt Q7SZP9); experiment: AP-ELA binding assay, 293T cells overexpressing receptor; details: HEK293T overexpression
# T2 sequence (Q7SZP9 1-362): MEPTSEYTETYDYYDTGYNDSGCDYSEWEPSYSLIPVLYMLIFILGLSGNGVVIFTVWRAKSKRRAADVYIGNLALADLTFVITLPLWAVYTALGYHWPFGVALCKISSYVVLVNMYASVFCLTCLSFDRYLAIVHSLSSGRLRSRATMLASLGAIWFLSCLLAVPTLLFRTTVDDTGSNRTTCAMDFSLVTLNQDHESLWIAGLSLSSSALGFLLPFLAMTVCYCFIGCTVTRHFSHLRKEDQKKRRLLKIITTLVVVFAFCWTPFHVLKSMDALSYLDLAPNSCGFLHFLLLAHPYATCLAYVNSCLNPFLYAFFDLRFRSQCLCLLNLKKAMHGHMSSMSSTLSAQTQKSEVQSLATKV
# zebrafish aplnrb = target: T3, zebrafish aplnrb (Danio rerio, UniProt A0T2N3); experiment: as above; details: HEK293T overexpression
# T3 sequence (A0T2N3 1-359): T1 sequence (A0T2N3 1-359 W90L) with L90W
# hESCs [4] = assay type: cell-based, human; details: data not shown
# ELA = target: T4, ELA (Homo sapiens, UniProt P0DMC3); experiment: extracellular neutralizing assay with affinity purified anti-ELA antibodies in hESC culture; assay type: cell-based; details: peptide added with α N antibodies
# T4 construct: ELA is an endogenous secreted peptide that is essential for the survival and self-renewal of hESCs; endogenous in cells; host or cells: hESCs (Shef4 / Shef4TetR5)
# T4 sequence (P0DMC3 23-54): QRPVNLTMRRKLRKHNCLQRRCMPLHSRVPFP
# hESCs [5] = experiment: insulin replacement assay in hESCs; assay type: cell-based, human; details: SHEF4 and HESC3 hESCs, 24 hours of growth without INSULIN
# Method: For insulin replacement assays, SHEF4 or HESC3 hESCs were cultured in TSER-E5 (Stem Cell Technologies) supplemented with TGF-β (5 ng/ml, R&D Systems) and bFGF (100 ng/ml, Invitrogen) with and without INSULIN (10 ug/ml, SIGMA).
# hESCs [6] = experiment: stress-induced apoptosis of hESCs by ActinomycinD; assay type: cell-based, human; details: for resistance or sensitivity to ActinomycinD: nanomolar concentrations of ActinomycinD
# Method: To induce apoptosis, hESCs were treated with the indicated doses of ActinomycinD (Sigma) or ionizing radiation followed by Aqueous One Cell Titer (Promega) or CASPASE GLO3/7 (Promega) assays 12 hours post-treatment.
# PI3K/AKT pathway = experiment: signaling pathway assay in starved hESCs pulsed with peptide (SDS-PAGE, western); assay type: cell-based, human; details: 5 uM peptide after 2-hour starvation
# Method: To assay the signaling pathway activated by ELA, hESCs were dissociated and plated in mTSER1 for 48 hours, followed by a 2-hour starvation in DMEM/F12. Synthetically produced ELA or ELA^RR>GG peptides, dialyzed against PBS to remove any residual synthesis buffers, were added at a final concentration of 5 uM (or as indicate(D) for the indicated period of time. Where applicable, PI3K inhibitors LY294002 (5 uM) and Wortmannin (1 uM) were added 30 minutes before pulsing with ELA peptides. Cells were lysed with PhosphoSafe™ (Millipore) for SDS-PAGE.
# hESCs [7] = experiment: xCELLigence real time growth assay, cell counts and colony size of hESCs; assay type: cell-based, human
# Method: Feeder-free hESCs were cultured in clumps in mTSER1 (Stem Cell Technologies) on Matrigel (BD 354277).
# as §1
# For xCELLigence real time growth assays, 4000 cells were plated per well of an E-plate (ACEA Biosciences) with media changes every 48 hours.
# Recombinant ELA was added at 2.5 uM (or 10 μg/ml). Cell cycle studies were performed with Click-iT EDU staining kit (Invitrogen) and by performing a double thymidine block (2.5 mM thymidine; 16 hour block, 8 hour release, 16 hour block) followed by DAPI staining for DNA content at the indicated times following release.
# hESCs [8] = experiment: stress-induced apoptosis of hESCs by ionizing radiation; assay type: cell-based, human
# hESCs [9] = experiment: stress-induced apoptosis of hESCs by ActinomycinD; assay type: cell-based, human
# hESCs [10] = experiment: protein synthesis by incorporation of fluorescently-labeled amino acids; assay type: cell-based, human
# hESCs [11] = experiment: pluripotency markers and colony morphology of knockdown hESCs; assay type: cell-based, human; details: prolonged depletion
# Method: To generate stable inducible knockdown of ELA in hESCs, the sequence […] (SEQ ID NO: 132) targeting the 3′UTR of ELA was cloned into pSUPERIOR (Oliogoengine) and nulcleofected (Lonza) into Shef4TetR5 hESCs (Zafarana et al., 2009). Neomycin-resistant cells were clonally expanded and assayed for doxycycline (20 ng/ml)-inducible knockdown. Data from one representative clone (ShefTetR5 shELA) are shown in this paper. Shef4TetR5 shβ2M were derived as previously described (Zafarana et al., 2009). Unless otherwise stated, ELA knockdown was induced on Day −4 with 20 ng/ml doxycycline to generate shELA cells.
# hESCs [12] = experiment: qPCR of mesendodermal markers in hESCs; assay type: cell-based, human
# Method: After the indicated time periods, embryoid bodies were harvested and RNA extracted using RNeasy kit ([…]). qPCR reactions were carried out using either Universal FastSlart SYBR Green Mastermix (Roche) or using the Universal Probe Library system (Roche) in tandem with Taqman Fast Mastermix (Invitrogen). Primer sequences can be found in Table E1.
# [13] = teratoma analysis after subcutaneous injection of hESCs; assay type: in vivo, SCID mice; details: 10 million cells subcutaneously, day 60
# Method: Shef4TetR5-shELA cells were cultured in the presence (shELA) or absence (Control) of 20 ng/ml doxycycline for 3 passages (4 days/passage). Cells were harvested with Accutase (Stemcell Technologies) and resuspended in 1 part Matrigel to 2 parts mTSERL. 10 million cells in 200 μl were injected subcutaneously into the right hind paunches of SCID mice. shELA-injected mice were fed doxycycline (20 μg/ml) for 3 weeks following injection. Mice were sacrificed 60 days post-injection for tumor analysis.
# hESCs [14] = experiment: directed endoderm differentiation of hESCs, SOX17+ cell count; assay type: cell-based, human
# Method: Shef4TetR5-shELA and Shef4TetR5-shβ2M cells were cultured in the presence (shELA and shβ2M respectively) or absence (Control) of 20 ng/ml doxycycline for 1 passage (4 days) and dissociated with Accutase. […] 24 hours later, the media was changed to Endo differentiation media 1 [RPMI 1640 (Gibco), 1× B-27 supplement (Invitrogen), 50 ng/ml of Activin A (R&D Systems), 25 ng/ml BMP4 (R&D Systems) and 50 ng/ml bFGF (Invitrogen)] for 3 days. On day 3, the media was changed to Endo differentiation media 2 (RPMI 1640, B27, 50 ng/ml Activin) for 2 more days of culture. Rescue experiments were performed by adding 2.5 uM of ELA peptide to Shef4TetR5-shELA concurrently with doxycycline up to day 3, when the ELA peptide is no longer necessary as judged by downregulation of endogenous ELA.
# On day 5, cells were fixed with 4% paraformaldehyde and stained with α SOX17 (AF1924, R&D Systems) and DAPI. For each well, three different randomly selected fields were imaged and the number of nuclei staining positive of SOXI 7 and DAPI were counted using a custom macro in ImageJ. A minimum of two wells per condition was used for each experiment, and a minimum of two independent experiments were performed to generate the results.
compound,measurement,setting,value
C[C@H]1CCC/C=C/[C@@H]2C[C@H](O)C[C@H]2[C@H](O)/C=C/C(=O)O1 [Brefeldin A],ELA processing and secretion,[1],able to block ELA processing and secretion
"C[C@@H](N)[C@H]1CC[C@H](C(=O)Nc2ccncc2)CC1 [ROCK inhibitor, Y-27632, reference compound]",survival following dissociation (anoikis),hESCs [2],protects against anoikis
"AP-ELA: mature C-terminal 32-mer of ELA cloned in frame with alkaline phosphatase, secreted from 293T cells",binding of AP-ELA to aplnrb^grinch,aplnrb^grinch (W90L),unable to bind AP-ELA
same,binding of AP-ELA to hESCs,hESCs [3],readily bind
same,cell-surface binding of AP-ELA to aplnra,zebrafish aplnra,sufficient to afford cell-surface binding
same,cell-surface binding of AP-ELA to aplnrb,zebrafish aplnrb,sufficient to afford cell-surface binding
APELIN-13,effect on hESCs,hESCs [4],no effect on hESCs
"ELA^RR>GG: doubly mutated ELA mutant peptide (R31G, R32G), non-signaling (QRPVNLTMGGKLRKHNCLQRRCMPLHSRVPFP)",competition of the neutralizing activity of the antibody by peptide,ELA,competed out
same,rescue in cell viability in the absence of INSULIN,hESCs [5],exerted no effects
same,resistance or sensitivity to ActinomycinD,hESCs [6],no protective effect
same,phosphorylation of AKT at serine 473 and PRAS40 at threonine 246,PI3K/AKT pathway,not observed
same,growth of hESCs relative to untreated cells,"hESCs [7]; cell counts, colony size, real-time cell indices, peptide 2.5 uM (10 μg/ml)",without effect
"GTGATTCTCGTGCCTCAAC (expressed or natural sequence) [shELA, doxycycline-inducible shRNA targeting the 3′UTR of ELA in Shef4TetR5 hESCs]",sensitivity to gamma irradiation relative to control,hESCs [8],twice as sensitive
same,activated CASPASE 3 after irradiation,hESCs [8]; 3 hours after 1 Gray of γ irradiation,higher levels of activated CASPASE 3
same,levels of MCL-1,hESCs [9],lower levels
same,BAX localisation,hESCs [9]; mitochondria versus cytoplasm,higher levels of BAX in the mitochondria
same,protein synthesis,hESCs [10],reduced protein synthesis
same,"pluripotency markers POU5F1, NANOG, SSEA3 and TRA-1-60",hESCs [11],downregulation of pluripotency markers
same,survival following dissociation (anoikis),hESCs [2],do not survive single-cell dissociation
same,activated CASPASE3/7 and CASPASE 9 after ActinomycinD,hESCs [6],increased levels of activated CASPASE3/7
same,resistance or sensitivity to ActinomycinD,hESCs [6],more sensitive compared to control
same,"expression of mesendodermal genes GATA6, GATA4, FOXA2, EOMES and BRA",hESCs [12],conversely downregulated
same,teratoma formation,[13],did not form teratomas
same,reduction over control in the number of SOX17+ cells,"hESCs [14]; 5 days directed differentiation, FIG. 6F",45%
same,reduction of SOX17 expression,"hESCs [14]; directed differentiation, control, shELA and shβ2M, FIG. 13C",35%
same,growth rates of knockdown hESCs seeded as single cells,"hESCs [7]; real-time cell index, compared to control and shβ2M hESCs",markedly reduced growth rates
same,colony size of knockdown hESCs,hESCs [7]; relative to shβ2M hESCs,less than half the size
